Laboratory results as given in patent publication US5914242A, “Method for diminishing myocardial infarction using protein phosphatase inhibitors” (priority 1997, dated 1999).

Experiments:
PP1/PP2A-chimera (CRHM2) = experiment: Inhibition of recombinant PP1/PP2A chimera; format: biochemical, human PP1 / bovine PP2A; settings: enzyme printed as rPP2Ac-1
Protocol: FIG. 6: Sequence of a PP1/PP2A chimera. To characterize the fostriecin binding site, the N-terminal region of PP1 was ligated to the C-terminal region of PP2A (in bold) to produce a PP1/PP2A-chimera (CRHM2). Previous studies indicate that the okadaic acid binding domain is contained in the C-terminal region of PP2A that was incorporated into CRHM2.
FIG. 7: Effect of fostriecin and okadaic acid on the activity of recombinant CRHM2. CRHM2 activity was assayed in the presence of the indicated amount of fostriecin (FIG. 7A) or okadaic acid (FIG. 7B). […] Assays were conducted as described in FIG. 5. Each point represents the mean ± SE (n>6).
(§1) PP1, an enzyme highly homologous to PP2A, could be expressed in a stable manner and in relatively large amounts. Thus, human PP1 was cloned and subcloned into a bacterial expression vector as was done for PP2A. […] To create a hybrid enzyme (a PP1/PP2A chimera) that could be expressed stably like rPP1 but would bind okadaic acid with high affinity like PP2A, a number of mutant forms of PP1 and PP2A were constructed. Then, through mutational analysis, the okadaic acid binding domain of PP2A was identified. The okadaic acid binding domain from PP2A was cloned behind the amino terminal domain of PP1. The hybrid, referred to as CRHM-2, was subcloned into an expression vector. Restriction analysis of CRHM-2 confirmed the identity of the construct.
In these studies, the bacterial expressed PP1/PP2A hybrid enzyme was produced by growing appropriate strains of transformed E. coli at 18° C. for 48 hours in LB-media containing 50 μg/ml ampicillin, 1 mM MnCl2, and 50 μM IPTG. The bacteria were lysed with a French Press, and after centrifugation at 15,000×g for 45 min, the phosphatase was partially purified via ion-exchange [High Q (BioRad) and MonoQ (Pharmacia)] and affinity [Heparin-Sepharose (Pharmacia)] chromatography. The sensitivity of the chimera to fostriecin was determined employing the same protein phosphatase assay employed with endogenous PP1 or PP2A, with the addition of MnCl2 (1 mM) to the assay buffer.

rPP1 = experiment: Inhibition of recombinant PP1; format: biochemical; settings: bacterially expressed human PP1
From the text: as §1

C=C1[C@@H](O)[C@@H]2O[C@]3(CC[C@H](/C=C/[C@@H](C)[C@@H]4CC(C)=C[C@@]5(O[C@H](C[C@@](C)(O)C(=O)O)CC[C@H]5O)O4)O3)CC[C@H]2O[C@@H]1[C@@H](O)C[C@H](C)[C@H]1O[C@@]2(CCCCO2)CC[C@H]1C [okadaic acid, reference compound]
binding affinity to the recombinant hybrid enzyme (PP1/PP2A-chimera (CRHM2)): comparable affinity to PP2A
sensitivity of rPP1 to inhibition, relative to PP2A (rPP1): less sensitive to inhibition by okadaic acid than PP2A
